The values that follow come from publication PMC4148167 (Journal of Medicinal Chemistry, 2014).

Converted amounts (≈) assume the structure as drawn.

One series relates to 305 kinases. Put plainly: Carna Biosciences kinome profile at 100 nM. The format is biochemical. The conditions noted are these: in duplicate.
The next series relates to A549 NSCLC cells. Put plainly: soft agar colony formation, A549. The format is cell-based. The conditions noted are these: 2 weeks, negative control 20 at 300 nM.
The nature of a further series: kinetic solubility. The format is physicochemical. The conditions noted are these: normal saline, pH 7.4.
For another series, the system named is Molm-14 AML cells. Put plainly: soft agar colony formation, Molm-14. The format is cell-based. The conditions noted are these: 2 weeks, negative control 20 at 50 nM.
For a further series, the target named is T1, Mer (Homo sapiens, UniProt Q12866).
T1 sequence (Q12866 21-999): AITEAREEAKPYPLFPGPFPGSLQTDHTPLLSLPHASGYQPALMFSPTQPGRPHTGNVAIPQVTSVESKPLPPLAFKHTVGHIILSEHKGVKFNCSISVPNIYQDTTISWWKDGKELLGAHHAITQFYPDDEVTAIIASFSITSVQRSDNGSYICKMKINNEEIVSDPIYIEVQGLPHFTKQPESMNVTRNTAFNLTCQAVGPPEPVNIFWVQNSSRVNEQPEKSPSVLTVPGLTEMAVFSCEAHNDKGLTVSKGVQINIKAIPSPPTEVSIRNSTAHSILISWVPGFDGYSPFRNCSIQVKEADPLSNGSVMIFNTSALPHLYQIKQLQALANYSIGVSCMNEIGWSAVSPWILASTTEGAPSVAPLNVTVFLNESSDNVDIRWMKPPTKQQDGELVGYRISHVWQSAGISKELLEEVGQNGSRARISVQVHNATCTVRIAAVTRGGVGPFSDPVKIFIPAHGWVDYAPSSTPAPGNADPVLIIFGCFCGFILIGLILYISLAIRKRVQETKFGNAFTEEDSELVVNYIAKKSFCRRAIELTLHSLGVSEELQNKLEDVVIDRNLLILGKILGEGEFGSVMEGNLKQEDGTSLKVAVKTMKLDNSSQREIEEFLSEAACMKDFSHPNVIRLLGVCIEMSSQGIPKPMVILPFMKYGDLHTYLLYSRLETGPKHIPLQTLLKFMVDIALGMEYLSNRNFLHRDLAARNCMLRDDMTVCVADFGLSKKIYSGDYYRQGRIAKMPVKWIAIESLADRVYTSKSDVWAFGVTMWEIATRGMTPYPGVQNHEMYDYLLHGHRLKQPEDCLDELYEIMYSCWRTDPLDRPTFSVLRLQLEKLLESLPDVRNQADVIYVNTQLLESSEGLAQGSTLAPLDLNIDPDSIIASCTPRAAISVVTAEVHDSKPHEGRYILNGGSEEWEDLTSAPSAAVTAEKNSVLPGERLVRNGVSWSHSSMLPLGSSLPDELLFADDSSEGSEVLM
Put plainly: pharmacodynamic study: Mer phosphorylation in bone marrow leukemia cells in vivo. Details: species or system NOD/SCID/gamma mice with 697 human leukemia xenografts. The conditions noted are these: single 3 mg/kg oral dose, 30 min after dosing.

Turning to `CCCCNc1ncc2c(-c3ccc(CN4CCN(C)CC4)cc3)cn([C@H]3CC[C@H](O)CC3)c2n1` [Compound 11], the “number of kinases inhibited by more than 50%” value with 305 kinases is reported as “Sixty-six”. In addition, the “effect on colony formation in soft agar, A549 NSCLC” value in the series on A549 NSCLC cells is “significant inhibition of colony formation”. This molecule registered a kinetic solubility in the series “kinetic solubility” of 38 µg/mL (≈ 79.7 µM). Further, the “effect on colony formation in soft agar, Molm-14 AML” value in the series with Molm-14 AML cells is listed as “significant inhibition of colony formation”. For the same molecule, the “decrease of Mer phospho-protein levels in bone marrow leukemia cells” value on Mer is recorded as “greater than 90%”.

As for `CCCCN(C)c1ncc2c(-c3ccc(CN4CCN(C)CC4)cc3)cn([C@H]3CC[C@H](O)CC3)c2n1` [Compound 20], in the series with A549 NSCLC cells, the “effect on colony formation in soft agar, A549 NSCLC” value is “no significant effect”. Besides, in the series on Molm-14 AML cells, the “effect on colony formation in soft agar, Molm-14 AML” value was “no significant effect”.

One may read the solubility (kinetic) as the concentration staying in solution when a stock, usually in DMSO, is diluted into the medium.
